“Also recorded” adds a separate entry of the source. Residues, ends and D or L forms follow the SMILES beside them. {Stearyl} = n-C18 stearyl group added with a stearyl phosphoramidite

The text below walks through data of patent US20170153257A1, “METHODS OF ESTIMATING LOGD OF TAGGED COMBINATORIAL LIBRARY COMPOUNDS” (DiCE Molecules SV, LLC, priority 2015, published 2017).

The first data set can be described thus: Gel mobility on standard agarose gel without vesicles. Type of data set: physicochemical. The following applies: ligand attached to 5′ end of DNA; 1.5% agarose, no vesicles; FIG. 1. The procedure: Low melt agarose gels (standard 1× TBE, 1.5% agarose), without vesicles were prepared by conventional methods (Molecular Cloning: a Laboratory Manual, T. Maniatis, E. F. Fritsch & J. Sambrook (1982)).
After the gels have solidified, samples are loaded, run at 100 volts, stained with ethidium bromide and photographed by standard methods (Molecular Cloning; Maniatis et al.; Cold Spring Harbor press, 1982).
Regarding “Compound 1: stearyl (n-C18H37) group attached to 5′ end of DNA oligonucleotide X (SEQ. ID. No. 1) (DNA GCTCGTCGCATTCGGCACGC; DNA, 5' {Stearyl}, backbone and methylation of C not given here; further chemistry not fully specified)”, the “mobility on standard agarose gel” value was “modestly retarded”.

A further data set can be described thus: Reverse phase HPLC of steroids linked to a 220 base pair oligonucleotide (Agilent AdvanceBio Oligonucleotide column). In kind it is physicochemical. The following applies: 220 base pair conjugates, acetonitrile/10 mM ammonium acetate gradient. The method, then: HPLC purified 20 base pair single stranded oligomers operatively linked to alkyl or steroid ligands were transformed into a double stranded 220 base pair gene via polymerase chain reaction (PCR). The oligomers operatively linked to alkyl or steroid ligands and a 20 base pair reverse oligomer (1 uM) were used as PCR primers in a 100 uL reaction with 10 ng of double stranded 220 base pair gene template with 2× Fusion Flash High-Fidelity PCR Master Mix (ThermoFisher F548S). Thermocycling was performed at 98 C.° for 10 s, followed by 10 cycles of 98 C°, 1 s, 55 C°, 5 s, 72 C°, 10 s then followed by an additional protocol of 98 C.° for 10 s followed by 15 cycles of 98 C°, 1 s, 50 C°, 5 s, 72 C°, 10 s. PCR products of 220 base pair were confirmed via gel electrophoresis, purified with the QIAquick PCR Purification Kit (Qiagen) and DNA concentration was quantified via nanodrop A260 measurements.
Compounds 18-24, prepared as described in Example 10 from the analogous 20 base pair oligomers were run on a reverse phase HPLC column, using an Agilent AdvanceBio Oligonucleotide column and acetonitrile/ammonium acetate gradient. […] Without wishing to be bound by theory, inclusion of appropriate standard compounds may provide useful surrogates of absolute values of log D. It should be also noted that chromLogD and Chrom20LogD may be determined by extensions of the above experiment.
For acetate, the “resolution / elution by reversed phase HPLC” value is “eluting in the void volume”.

The nature of a further data set: Gel mobility on agarose gel containing 0.9% CTAB/SOS vesicles. In kind it is physicochemical. The following applies: ligand attached to 5′ end of DNA; 1.5% agarose, 0.9% (w/v) CTAB/SOS vesicles; relative to reference gels lacking vesicles; FIG. 2. The procedure: Vesicles are prepared essentially as described by Pascoe et al., Electrophoresis 2003, 24: 4227-4240. Briefly, 0.45 gm of CTAB/SOS (CTAB=hexadecyltrimethylammonium bromide, Sigma catalogue #H9151; SOS=sodium octyl sulfate. Sigma catalogue #O4003)) at a ratio of 3:7 is dissolved in 1× TBE [Trisma-borate-EDTA electrophoresis buffer, Maniatis et al., p. 454] and heated to 50° C. in a water bath to assure dissolution. The solution is cooled overnight to room temperature and then filtered through a 0.2 micron filter. Vesicles prepared in this manner are reported to be stable for multiple days at room temperature.
Low melting agarose (0.75 gm) is dissolved in 25 mL 1× TBE and placed in a water bath at 50° C. along with a separate tube of vesicles. After equilibrium is reached, the tubes are mixed in a preheated flask, gently swirled and poured into a standard horizontal mini-gel apparatus to provide a vesicle agarose gel ((standard 1× TBE, 1.5% agarose, 0.9%). […]
FAM is 5′-6-FAM (Fluorescein). The 6-FAM moiety is comprised of a single isomer derivative of fluorescein and is the most commonly used fluorescent dye attachment for oligonucleotides and is compatible with most fluorescence detection equipment. It becomes protonated and has decreased fluorescence below pH 7; it is typically used in the pH range 7.5-8.5. […]
Turning to “Compound 1: stearyl (n-C18H37) group attached to 5′ end of DNA oligonucleotide X (SEQ. ID. No. 1) (DNA GCTCGTCGCATTCGGCACGC; DNA, 5' {Stearyl}, backbone and methylation of C not given here; further chemistry not fully specified)”, the “mobility on agarose gel with vesicles” value was “greatly retard the mobility; also recorded: retarded”.

A further data set can be described thus: eLogD by shake flask method in aqueous buffer/octanol mixture. The following applies: linear peptides, N terminal acetylated and C terminal amide; pH 7.4, octanol-water.
Description: “eLogD,” as used herein, refers to a determination of LogD by shake flask method in aqueous buffer/octanol mixture.
“LogD(pH),” as used herein, refers to a distribution of a compound between aqueous buffer and octanol at a given pH. Unless otherwise stated, the pH is assumed to be 7.4 and be written as LogD.
For the compound `CC(=O)N[C@@H](CCCNC(=N)N)C(=O)N[C@@H](Cc1ccccc1)C(=O)N[C@@H](CC(C)C)C(N)=O` [RFL] (Ac-Arg-Phe-Leu-NH2), the “eLogD (7.4)” value is on record as −1.12.

As for `CC(=O)N[C@@H](C)C(=O)N[C@@H](Cc1ccc(O)cc1)C(=O)N[C@@H](CC(C)C)C(N)=O` [AYL] (Ac-Ala-Tyr-Leu-NH2), the “eLogD (7.4)” value is given as −0.06.

On to Ac-ALLGF-NH2 [ALLGF], for which the “eLogD (7.4)” value is listed as 1.05.

On to `CC[C@H](C)[C@H](NC(C)=O)C(=O)N[C@@H](Cc1ccccc1)C(=O)N[C@@H](C)C(N)=O` [IFA] (Ac-Ile-Phe-Ala-NH2), for which the “eLogD (7.4)” value is 0.46.

Consider `CC[C@H](C)[C@H](NC(=O)[C@H](CC(C)C)NC(=O)[C@H](CO)NC(C)=O)C(N)=O` [SLI] (Ac-Ser-Leu-Ile-NH2), for which the “eLogD (7.4)” value is on record as −0.06.

As to `CC[C@H](C)[C@H](NC(C)=O)C(=O)N[C@@H](CCSC)C(=O)N[C@@H](Cc1ccccc1)C(N)=O` [IMF] (Ac-Ile-Met-Phe-NH2), the “eLogD (7.4)” value was 1.25.

Consider `CC[C@H](C)[C@H](NC(=O)[C@H](CCC(=O)O)NC(C)=O)C(=O)N[C@@H](Cc1ccccc1)C(N)=O` [EIF (D718)] (Ac-Glu-Ile-Phe-NH2), for which the “eLogD (7.4)” value is listed as −2.30.

On to Ac-YTGFL-NH2 [YTGFL], for which the “eLogD (7.4)” value worked out at 0.57.

For the compound `CC(=O)N[C@@H](Cc1c[nH]c2ccccc12)C(=O)NCC(=O)NCC(N)=O` [WGG] (Ac-Trp-Gly-Gly-NH2), the “eLogD (7.4)” value is −0.80.
